According to patent publication US11161856B2 (H. Lundbeck A/S, priority 2017, dated 2021):

Key:
Type in all cases: biochemical
[1] = target: T1, ABHD6 (Mus musculus, UniProt Q8R2Y0); assay: In vitro competitive activity-based protein profiling, mouse brain proteome (ABHD6); conditions: mouse brain proteome; concentration not given (μM)
T1 construct: Brain; from tissue; host or cells: mouse brain proteome
T1 sequence (Q8R2Y0 1-336): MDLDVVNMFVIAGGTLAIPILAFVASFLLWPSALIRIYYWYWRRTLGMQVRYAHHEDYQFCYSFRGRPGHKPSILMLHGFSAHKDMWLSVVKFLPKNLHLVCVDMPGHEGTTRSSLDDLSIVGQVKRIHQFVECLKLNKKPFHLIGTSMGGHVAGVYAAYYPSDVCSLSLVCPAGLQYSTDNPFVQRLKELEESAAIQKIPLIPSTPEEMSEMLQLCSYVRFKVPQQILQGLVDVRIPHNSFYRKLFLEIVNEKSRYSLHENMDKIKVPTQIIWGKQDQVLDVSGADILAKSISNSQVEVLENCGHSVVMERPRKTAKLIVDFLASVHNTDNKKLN
Protocol: [The source words this procedure for another target and reports this target under the same test.] (§1) In Vitro Competitive Activity-Based Protein Profiling.
(§2) Proteomes (human prefrontal cortex or cell membrane fractions) (50 μL, 1.0 mg/mL total protein concentration) were preincubated with varying concentrations of inhibitors at 37° C. After 30 min, FP-Rh or HT-01 (1.0 μL, 50 μM in DMSO) was added and the mixture was incubated for another 30 min at room temperature. Reactions were quenched with SDS loading buffer (15 μL-4×) and run on SDS-PAGE.

[2] = target: T2, MGLL (Mus musculus, UniProt O35678); assay: In vitro competitive activity-based protein profiling, mouse brain proteome (MGLL); conditions: concentration not given (μM)
T2 construct: Brain; from tissue; host or cells: mouse brain proteome
T2 sequence (O35678 1-303): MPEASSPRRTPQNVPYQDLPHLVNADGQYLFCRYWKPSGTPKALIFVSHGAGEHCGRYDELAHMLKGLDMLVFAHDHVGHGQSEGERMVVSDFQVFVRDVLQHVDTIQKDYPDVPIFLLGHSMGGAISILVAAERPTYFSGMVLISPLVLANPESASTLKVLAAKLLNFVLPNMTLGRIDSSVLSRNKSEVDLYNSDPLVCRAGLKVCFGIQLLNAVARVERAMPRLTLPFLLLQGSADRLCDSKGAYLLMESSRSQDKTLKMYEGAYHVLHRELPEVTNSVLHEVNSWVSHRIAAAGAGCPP

[3] = target: T3, MAGL (Homo sapiens, UniProt Q99685); assay: In vitro competitive activity-based protein profiling (FP-Rh or HT-01 probe, gel-based); parameters: IC50 MGLL PC3 (Human, μM) / IC50 MGLL PFC (Human, μM): scale not given here; conditions: for % Inh MGLL PC3 (Human, μM) / IC50 / IC50 MGLL PC3 (Human, μM): PC3 cell proteome; for % Inh MGLL PC3 (Human, μM) / % Inh MGLL PFC (Human, μM): concentration not given (μM); for IC50: read-out: IC50 MGLL PC3 (Human)
T3 construct: Proteomes (human prefrontal cortex or cell membrane fractions); from tissue
T3 sequence (Q99685 1-303): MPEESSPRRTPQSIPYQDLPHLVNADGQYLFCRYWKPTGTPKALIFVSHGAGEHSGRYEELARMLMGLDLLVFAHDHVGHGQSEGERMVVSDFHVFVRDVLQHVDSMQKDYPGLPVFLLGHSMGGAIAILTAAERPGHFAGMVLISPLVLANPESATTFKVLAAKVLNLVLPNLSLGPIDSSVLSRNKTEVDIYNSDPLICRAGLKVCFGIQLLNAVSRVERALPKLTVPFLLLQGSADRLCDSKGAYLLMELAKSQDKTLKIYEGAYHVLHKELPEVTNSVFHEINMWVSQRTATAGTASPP
Protocol: as §1, §2

[4] = prefrontal cortex (PFC) proteome

Row | SMILES | % Inh ABHD6 Brain (Mouse, μM) [1] | % Inh MGLL Brain (Mouse, μM) [2] | % Inh MGLL PC3 (Human, μM) [3] | IC50 [3] | % Inh MGLL PFC (Human, μM) [3, 4] | IC50 MGLL PC3 (Human, μM) [3] | IC50 MGLL PFC (Human, μM) [3, 4]
1 | CN(Cc1ccc(C(F)(F)F)cc1N1CCC(N2CCC[C@@H]2C(=O)O)CC1)C1(C)CCN(C(=O)OC(C(F)(F)F)C(F)(F)F)CC1 [Example 162, (1-(2-(((1-(((1,1,1,3,3,3-Hexafluoropropan-2-yl)oxy)carbonyl)-4-methylpiperidin-4-yl)(methyl)amino)methyl)-5-(trifluoromethyl)phenyl)piperidin-4-yl)-D-proline] | # (# is ≤25%) | ### (### is ≥75%) | ### (### is ≥75%) | < 100 nM | – | – | –
2 | O=C(O)C1CCN(c2cc(S(F)(F)(F)(F)F)ccc2CN2CCC3(CC2)CCN(C(=O)OC(C(F)(F)F)C(F)(F)F)C3)CC1 [Example 222, l-(2-((2-(((1,1,1,3,3,3-Hexafluoropropan-2-yl)oxy)carbonyl)-2,8-diazaspiro[4.5]decan-8-yl)methyl)-5-(pentafluoro-16-sulfaneyl)phenyl)piperidine-4-carboxylic acid] | ## (## is between 25 and 75%) | ### (### is ≥75%) | – | – | ### (### is ≥75%) | – | –
3 | O=C(OC(C(F)(F)F)C(F)(F)F)N1CCC2(CCCN2C(=O)c2ccc(C(F)(F)F)cc2)CC1 [Example 83, 1,1,1,3,3,3-Hexafluoropropan-2-yl 1-(4-(trifluoromethyl)benzoyl)-1,8-diazaspiro[4.5]decane-8-carboxylate] | ### (### is ≥75%) | ### (### is ≥75%) | – | – | ### (### is ≥75%) | – | –
4 | CN(Cc1ccc(C(F)(F)F)cc1N1CCC[C@H]1C(=O)O)C1(C)CCN(C(=O)OC(C(F)(F)F)C(F)(F)F)CC1 [Example 132, (2-(((1-(((1,U, 3,3,3-Hexafluoropropan-2-yl)oxy)carbonyl)-4-methylpiperidin-4-yl)(methyl)amino)methyl)-5-(trifluoromethyl)phenyl)proline] | # (# is ≤25%) | ### (### is ≥75%) | ### (### is ≥75%) | 100 to 1000 nM | ### (### is ≥75%) | – | –
5 | O=C(OC(C(F)(F)F)C(F)(F)F)N1CCC2(CC1)CCN(C(=O)c1ccc(C(F)(F)F)cc1Cl)C2 [Example 119, 1,1,1,3,3,3-Hexafluoropropan-2-yl 2-(2-chloro-4-(trifluoromethyl)benzoyl)-2,8-diazaspiro[4.5]decane-8-carboxylate] | ### (### is ≥75%) | ### (### is ≥75%) | – | – | ### (### is ≥75%) | – | –
6 | CN(Cc1ccc(F)cc1C1(C(=O)O)CCCC1)C1(C)CCN(C(=O)OC(C(F)(F)F)C(F)(F)F)CC1 [Example 143, 1-(5-Fluoro-2-{[(1-{[(1,1,1,3,3,3-hexafluoropropan-2-yl)oxy]carbonyl}-4-methylpiperidin-4-yl)(methyl)amino]methyl}phenyl)cyclopentane-1-carboxylic acid] | # (# is ≤25%) | ### (### is ≥75%) | ### (### is ≥75%) | – | – | – | –
7 | CN(Cc1cccc(Cl)c1C1(C(=O)O)CCCC1)C1(C)CCN(C(=O)OC(C(F)(F)F)C(F)(F)F)CC1 [Example 9, 1-(2-Chloro-6-(((1-(((1,1,1,3,3,3-hexafluoropropan-2-yl)oxy)carbonyl)-4-methylpiperidin-4-yl)(methyl)amino)methyl)phenyl)cyclopentane-1-carboxylic acid] | # (# is ≤25%) | ### (### is ≥75%) | ### (### is ≥75%) | – | – | * * * | –
8 | O=C(O)C1CCN(c2cc(CN3CCC4(CC3)CCN(C(=O)OC(C(F)(F)F)C(F)(F)F)C4)cc(S(F)(F)(F)(F)F)c2)CC1 [Example 226, 1-(3-((2-(((1,1,1,3,3,3-Hexafluoropropan-2-yl)oxy)carbonyl)-2,8-diazaspiro[4.5]decan-8-yl)methyl)-5-(pentafluoro-16-sulfancyl)phenyl)piperidine-4-carboxylic acid] | ## (## is between 25 and 75%) | ### (### is ≥75%) | – | – | ### (### is ≥75%) | – | –
9 | CN(Cc1ccc(Cl)cc1C1(C(=O)O)CCCC1)C1(C)CCN(C(=O)OC(C(F)(F)F)C(F)(F)F)CC1 [Example 142, 1-(5-Chloro-2-{[(1-{[(1,1,1,3,3,3-hexafluoropropan-2-yl)oxy]carbonyl}-4-methylpiperidin-4-yl)(methyl)amino]methyl}phenyl)cyclopentane-1-carboxylic acid] | # (# is ≤25%) | ### (### is ≥75%) | ### (### is ≥75%) | – | – | – | –
10 | CC(C)(C#Cc1cc(CN2CCCC23CCN(C(=O)OC(C(F)(F)F)C(F)(F)F)CC3)cc(C(F)(F)F)c1)C(=O)O [Example 140, 4-{3-[(8-{[(1,1,1,3,3,3-Hexafluoropropan-2-yl)oxy]carbonyl}-1,8-diazaspiro[4.5]decan-1-yl)methyl]-5-(trifluoromethyl)phenyl}-2,2-dimethylbut-3-ynoic acid] | ### (### is ≥75%) | ### (### is ≥75%) | ### (### is ≥75%) | – | – | – | –
11 | CC1(C(=O)O)CCN(c2cc(CN3CC4(CCN(C(=O)OC(C(F)(F)F)C(F)(F)F)CC4)C3)cc(C(F)(F)F)c2)C1 (stereo not drawn) [Example 121, l-(3-((7-(((1,1,1,3,3,3-Hexafluoropropan-2-yl)oxy)carbonyl)-2,7-diazaspiro[3.5]nonan-2-yl)methyl)-5-(trifluoromethyl)phenyl)-3-methylpyrrolidine-3-carboxylic acid] | ### (### is ≥75%) | ### (### is ≥75%) | – | – | ### (### is ≥75%) | – | –
12 | CN(Cc1ccc(C(F)(F)F)cc1N1CCN(CC(=O)O)CC1)C1(C)CCN(C(=O)OC(C(F)(F)F)C(F)(F)F)CC1 [Example 26, 2-(4-(2-(((1-(((1,1,1,3,3,3-Hexafluoropropan-2-yl)oxy)carbonyl)-4-methylpiperidin-4-yl)(methyl)amino)methyl)-5-(trifluoromethyl)phenyl)piperazin-1-yl)acetic acid] | ### (### is ≥75%) | ### (### is ≥75%) | ### (### is ≥75%) | – | – | * * * | * * *
13 | CN(Cc1ccc(C(F)(F)F)cc1CN1CCC(C(=O)O)CC1)C1(C)CCN(C(=O)OC(C(F)(F)F)C(F)(F)F)CC1 [Example 137, l-(2-(((1-(((1,1,1,3,3,3-Hexafluoropropan-2-yl)oxy)carbonyl)-4-methylpiperidin-4-yl)(methyl)amino)methyl)-5-(trifluoromethyl)benzyl)piperidine-4-carboxylic acid] | # (# is ≤25%) | ### (### is ≥75%) | ### (### is ≥75%) | – | – | – | –
14 | O=C(O)CN1CC2CN(c3cc(C(F)(F)F)ccc3CN3CCCC34CCN(C(=O)OC(C(F)(F)F)C(F)(F)F)CC4)CC2C1 (stereo not drawn) [Example 155] | # (# is ≤25%) | ### (### is ≥75%) | – | – | ### (### is ≥75%) | – | –
